The source of these data is ChEMBL document CHEMBL5291721, “A preclinical secondary pharmacology resource illuminates target-adverse drug reaction associations of marketed drugs” (Nat Commun, 2023).
Further: assay procedure not described here.

In this assay the target is T1, 5-hydroxytryptamine receptor 1A (Homo sapiens, UniProt P08908).
T1 sequence (P08908 whole entry): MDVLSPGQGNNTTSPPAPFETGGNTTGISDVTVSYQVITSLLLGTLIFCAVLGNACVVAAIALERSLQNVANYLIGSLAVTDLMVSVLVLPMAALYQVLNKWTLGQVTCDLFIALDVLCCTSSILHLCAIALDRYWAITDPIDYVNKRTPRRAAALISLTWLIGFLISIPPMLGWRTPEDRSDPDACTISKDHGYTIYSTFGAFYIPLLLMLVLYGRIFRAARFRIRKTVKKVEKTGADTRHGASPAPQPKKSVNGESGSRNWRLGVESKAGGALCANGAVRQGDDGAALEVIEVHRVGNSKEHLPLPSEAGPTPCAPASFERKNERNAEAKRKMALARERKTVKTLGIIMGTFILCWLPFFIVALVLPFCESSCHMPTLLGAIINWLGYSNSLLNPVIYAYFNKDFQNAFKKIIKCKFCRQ
Turning to `C(=N\NC1=NCCN1)/c1c2ccccc2c(/C=N/NC2=NCCN2)c2ccccc12` [BISANTRENE], half-maximal activity (AC50) was put at 1.65 µM.

With `CCO/N=C(\C(=O)N[C@@H]1C(=O)N2C(C(=O)[O-])=C(Sc3nc(-c4cc[n+](C)cc4)cs3)CS[C@H]12)c1nsc(N)n1` [CEFTAROLINE], the AC50 (as a rule, the concentration giving half of the maximal activity seen) is > 30 µM.

Take `Cc1cc(O)cc(C)c1Cl` [CHLOROXYLENOL]: the AC50 is > 30 µM.

For the compound `C[N+](C)(C)CCCCCCCCCC[N+](C)(C)C` [DECAMETHONIUM], the AC50 was > 30 µM.

In the case of `O=C1c2ccccc2C(=O)C1C(=O)C(c1ccccc1)c1ccccc1` [DIPHENADIONE], the AC50 is > 30 µM.

`CCC(=O)O[C@H]1[C@H](O[C@@H]2[C@@H](C)[C@H](O[C@H]3C[C@@](C)(OC)[C@@H](O)[C@H](C)O3)[C@@H](C)C(=O)O[C@H](CC)[C@@](C)(O)[C@H](O)[C@@H](C)C(=O)[C@H](C)C[C@@]2(C)O)O[C@H](C)C[C@@H]1N(C)C` [ERYTHROMYCIN PROPIONATE] returned an AC50 of 15.1 µM.

Regarding `O=C1[C@H](CC[C@H](O)c2ccc(F)cc2)[C@@H](c2ccc(O)cc2)N1c1ccc(F)cc1` [EZETIMIBE], the AC50 is > 30 µM.

`Cc1c(-c2ccccc2)oc2c(C(=O)OCCN3CCCCC3)cccc2c1=O` [FLAVOXATE] showed an AC50 of 3.11 µM.

For `CCC(=O)c1c(O)cc(O)cc1O` [FLOPROPIONE], the AC50 is > 30 µM.

`CC1(C)O[C@@H]2C[C@H]3[C@@H]4C[C@H](F)C5=CC(=O)CC[C@]5(C)[C@H]4[C@@H](O)C[C@]3(C)[C@]2(C(=O)CO)O1` [FLURANDRENOLIDE]: the AC50 was > 30 µM.

On to `CC(C)C(=O)Nc1ccc([N+](=O)[O-])c(C(F)(F)F)c1` [FLUTAMIDE], for which the AC50 is > 30 µM.

`C#C[C@]1(O)CC[C@H]2[C@@H]3CCC4=CC(=O)CC[C@@H]4[C@H]3CC[C@@]21CC` [LEVONORGESTREL]: the AC50 is > 30 µM.

As for `CN1CCCC(CN2c3ccccc3Sc3ccccc32)C1` (stereo unspecified) [MEPAZINE], the AC50 was > 30 µM.

For `Sc1ncnc2nc[nH]c12` [MERCAPTOPURINE ANHYDROUS], the AC50 was > 30 µM.

Take `C[N+]1(C)[C@@H]2C[C@@H](OC(=O)[C@H](CO)c3ccccc3)C[C@H]1[C@@H]1O[C@@H]12` [METHSCOPOLAMINE]: the AC50 is > 30 µM.

Take `CC(=O)Oc1c(C)cc(OCC(O)CNC(C)C)c(C)c1C` (stereo unspecified) [METIPRANOLOL]: the AC50 was > 30 µM.

On to `O=C1CC[C@@]2(O)[C@H]3Cc4ccc(O)c5c4[C@@]2(CCN3CC2CC2)[C@H]1O5` [NALTREXONE], for which the AC50 is > 30 µM.

In the case of `CC(N/C(=N\C#N)Nc1ccncc1)C(C)(C)C` (stereo unspecified) [PINACIDIL ANHYDROUS], the AC50 was > 30 µM.

Turning to `CN(C)C(=O)Oc1ccc[n+](C)c1` [PYRIDOSTIGMINE], the AC50 was > 30 µM.

As for `Cc1cc2c(cc1CC(=O)c1sccc1S(=O)(=O)Nc1onc(C)c1Cl)OCO2` [SITAXENTAN], the concentration at half-maximal activity (AC50) was > 30 µM.

On to `Cc1ccc(O)c2ncccc12` [TILIQUINOL], for which the AC50 was > 30 µM.
